The target of one test is Histamine H1 receptor (Cavia porcellus, UniProt P31389). Kind of test: Displacement of [3H]mepyramine from histamine H1 receptor in guinea pig cerebellum after 60 mins by liquid scintillation counting analysis.
Test [1] concerns the target 5-hydroxytryptamine receptor 2A (Rattus norvegicus, UniProt P14842). Kind of test: Displacement of [3H]ketanserin from 5HT2A receptor in rat cerebral cortex after 15 mins by liquid scintillation counting analysis. The format is tissue-based. Background: Loss of bound radioactivity is the signal in a displacement assay; it reports binding, not function.
The target of a further test is D(2) dopamine receptor (Rattus norvegicus, UniProt P61169).
D(2) dopamine receptor, sequence (P61169 whole entry): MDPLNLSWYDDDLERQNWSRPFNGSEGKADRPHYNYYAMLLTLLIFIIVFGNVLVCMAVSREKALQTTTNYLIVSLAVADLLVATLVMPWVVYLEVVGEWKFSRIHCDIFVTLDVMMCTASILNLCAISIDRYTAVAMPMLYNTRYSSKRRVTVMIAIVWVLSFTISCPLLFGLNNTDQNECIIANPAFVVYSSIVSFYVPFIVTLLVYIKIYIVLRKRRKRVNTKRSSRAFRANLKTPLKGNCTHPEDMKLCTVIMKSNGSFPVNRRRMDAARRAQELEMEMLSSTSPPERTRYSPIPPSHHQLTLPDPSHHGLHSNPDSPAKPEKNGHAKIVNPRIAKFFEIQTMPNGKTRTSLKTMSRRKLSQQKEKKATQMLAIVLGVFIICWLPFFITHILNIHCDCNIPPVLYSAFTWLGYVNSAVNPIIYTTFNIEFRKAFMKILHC
For test [2], the target named is T1, Adrenergic receptor alpha-2 (Rattus norvegicus, UniProt P22086+P19328+P22909).
T1 sequence (P22086 whole entry): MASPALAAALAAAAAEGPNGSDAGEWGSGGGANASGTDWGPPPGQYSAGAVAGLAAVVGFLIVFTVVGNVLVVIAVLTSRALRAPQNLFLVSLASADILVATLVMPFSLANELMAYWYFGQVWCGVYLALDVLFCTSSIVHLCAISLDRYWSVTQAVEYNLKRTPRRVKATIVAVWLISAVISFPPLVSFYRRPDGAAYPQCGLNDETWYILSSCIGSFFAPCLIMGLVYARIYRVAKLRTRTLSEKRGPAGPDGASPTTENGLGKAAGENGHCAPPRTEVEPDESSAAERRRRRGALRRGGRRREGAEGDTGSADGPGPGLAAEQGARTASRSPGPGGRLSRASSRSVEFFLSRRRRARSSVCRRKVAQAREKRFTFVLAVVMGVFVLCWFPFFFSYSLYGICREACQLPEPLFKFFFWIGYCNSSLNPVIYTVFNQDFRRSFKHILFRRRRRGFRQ
T1 sequence (P19328 whole entry): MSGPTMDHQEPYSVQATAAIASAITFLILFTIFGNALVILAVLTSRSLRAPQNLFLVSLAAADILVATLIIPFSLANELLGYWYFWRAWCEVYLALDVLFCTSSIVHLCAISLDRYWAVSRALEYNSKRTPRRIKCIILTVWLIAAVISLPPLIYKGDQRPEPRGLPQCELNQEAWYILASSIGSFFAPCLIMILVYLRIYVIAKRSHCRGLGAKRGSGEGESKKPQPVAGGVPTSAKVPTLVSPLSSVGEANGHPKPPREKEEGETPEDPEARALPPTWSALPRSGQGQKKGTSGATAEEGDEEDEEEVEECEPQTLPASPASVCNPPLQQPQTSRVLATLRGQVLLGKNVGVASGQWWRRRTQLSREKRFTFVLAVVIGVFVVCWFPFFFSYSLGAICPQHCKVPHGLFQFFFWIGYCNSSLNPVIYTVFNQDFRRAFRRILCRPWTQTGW
T1 sequence (P22909 whole entry): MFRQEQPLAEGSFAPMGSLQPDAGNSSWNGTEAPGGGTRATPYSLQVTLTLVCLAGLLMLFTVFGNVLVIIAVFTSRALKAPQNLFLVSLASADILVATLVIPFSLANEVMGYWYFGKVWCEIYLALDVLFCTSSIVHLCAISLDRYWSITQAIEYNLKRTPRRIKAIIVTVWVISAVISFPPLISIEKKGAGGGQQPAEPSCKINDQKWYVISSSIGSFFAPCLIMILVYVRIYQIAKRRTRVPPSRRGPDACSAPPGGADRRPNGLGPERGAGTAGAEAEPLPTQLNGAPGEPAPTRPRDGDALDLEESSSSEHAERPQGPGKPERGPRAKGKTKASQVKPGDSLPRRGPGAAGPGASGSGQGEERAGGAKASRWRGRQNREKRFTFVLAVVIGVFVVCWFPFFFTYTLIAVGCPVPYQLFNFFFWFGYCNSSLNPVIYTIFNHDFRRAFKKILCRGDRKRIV
Description: Displacement of [3H]rauwolscine from alpha-2 adrenergic receptor in rat cerebral cortex after 60 mins by liquid scintillation counting analysis

Another test addresses D(3) dopamine receptor (Rattus norvegicus, UniProt P19020). Description: biochemical.
Test [3] has as its target T2, 5-hydroxytryptamine receptor 1A (Rattus norvegicus, UniProt P19327).
T2 sequence (P19327 whole entry): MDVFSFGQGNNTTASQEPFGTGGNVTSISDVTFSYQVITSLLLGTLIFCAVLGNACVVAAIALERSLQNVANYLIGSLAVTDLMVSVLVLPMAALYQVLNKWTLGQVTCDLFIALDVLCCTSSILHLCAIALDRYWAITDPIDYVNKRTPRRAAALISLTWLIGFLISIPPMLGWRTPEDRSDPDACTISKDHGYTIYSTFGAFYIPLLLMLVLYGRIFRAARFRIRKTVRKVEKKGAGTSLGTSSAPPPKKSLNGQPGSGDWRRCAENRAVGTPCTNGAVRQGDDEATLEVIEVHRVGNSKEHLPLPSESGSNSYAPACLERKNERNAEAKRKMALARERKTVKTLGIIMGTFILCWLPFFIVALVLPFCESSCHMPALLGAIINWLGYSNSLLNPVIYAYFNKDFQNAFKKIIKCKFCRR
Description: biochemical.
Description: Displacement of [3H]8-OH-DPAT from 5HT1A receptor in rat cerebral cortex after 30 mins by liquid scintillation counting analysis

SMILES strings stand for the structures. Bounds are passed on as bounds.

D(3) dopamine receptor, sequence (P19020 whole entry): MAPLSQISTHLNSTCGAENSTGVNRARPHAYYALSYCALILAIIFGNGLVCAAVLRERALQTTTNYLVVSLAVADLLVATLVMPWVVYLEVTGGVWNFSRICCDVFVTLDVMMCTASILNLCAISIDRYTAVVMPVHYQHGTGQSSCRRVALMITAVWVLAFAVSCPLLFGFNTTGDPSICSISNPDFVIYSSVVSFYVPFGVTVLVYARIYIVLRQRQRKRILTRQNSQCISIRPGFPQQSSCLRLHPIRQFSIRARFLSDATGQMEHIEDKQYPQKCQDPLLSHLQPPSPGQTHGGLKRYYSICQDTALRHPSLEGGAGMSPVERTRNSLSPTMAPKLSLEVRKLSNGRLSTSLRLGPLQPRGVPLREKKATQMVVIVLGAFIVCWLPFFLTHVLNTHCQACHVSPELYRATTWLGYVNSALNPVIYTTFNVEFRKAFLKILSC
Histamine H1 receptor, sequence (P31389 whole entry): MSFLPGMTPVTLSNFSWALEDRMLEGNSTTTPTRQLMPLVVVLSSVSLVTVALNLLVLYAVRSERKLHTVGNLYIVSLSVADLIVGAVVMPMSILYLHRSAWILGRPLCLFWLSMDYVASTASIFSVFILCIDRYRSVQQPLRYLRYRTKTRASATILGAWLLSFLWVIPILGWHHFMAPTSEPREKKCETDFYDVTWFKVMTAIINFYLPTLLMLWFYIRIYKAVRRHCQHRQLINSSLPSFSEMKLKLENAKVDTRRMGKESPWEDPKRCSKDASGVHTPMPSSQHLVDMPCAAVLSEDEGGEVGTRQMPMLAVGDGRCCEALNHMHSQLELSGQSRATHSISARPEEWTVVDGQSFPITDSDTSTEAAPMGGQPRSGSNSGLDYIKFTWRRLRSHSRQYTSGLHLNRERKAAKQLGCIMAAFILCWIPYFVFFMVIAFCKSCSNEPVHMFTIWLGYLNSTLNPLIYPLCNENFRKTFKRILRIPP
5-hydroxytryptamine receptor 2A, sequence (P14842 whole entry): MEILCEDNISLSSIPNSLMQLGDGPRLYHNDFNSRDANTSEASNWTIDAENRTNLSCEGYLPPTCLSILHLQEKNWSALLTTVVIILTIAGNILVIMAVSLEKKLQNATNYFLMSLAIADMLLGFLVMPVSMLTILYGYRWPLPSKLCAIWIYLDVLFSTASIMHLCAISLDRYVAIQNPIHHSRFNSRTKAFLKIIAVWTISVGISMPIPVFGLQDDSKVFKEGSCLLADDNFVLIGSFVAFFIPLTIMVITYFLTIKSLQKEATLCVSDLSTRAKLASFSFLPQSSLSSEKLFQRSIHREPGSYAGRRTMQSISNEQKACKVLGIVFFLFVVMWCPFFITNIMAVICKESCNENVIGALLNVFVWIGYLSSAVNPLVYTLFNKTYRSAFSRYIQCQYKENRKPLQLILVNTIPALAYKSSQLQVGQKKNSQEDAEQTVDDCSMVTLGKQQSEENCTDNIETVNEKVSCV

On to `Cc1cc(=O)oc2cc(OCCCCN3CCC(c4noc5cc(F)ccc45)CC3)ccc12`, for which the Ki came out at 19.6 nM on Histamine H1 receptor; 8.4 nM in test [1]; 4.9 nM at D(2) dopamine receptor; 159.6 nM in test [2]; 71.3 nM on D(3) dopamine receptor; 3.5 nM in test [3].
Regarding `COc1ccccc1N1CCN(CCCCOc2ccc3c(C)cc(=O)oc3c2)CC1`, the Ki on Histamine H1 receptor is over 10000 nM; in test [1] it was 8 nM; on D(2) dopamine receptor, 1.4 nM; in test [2] it was 86.9 nM; at D(3) dopamine receptor, 4.8 nM; in test [3], 0.012 nM.
Take `O=c1cc(-c2ccccc2)c2ccc(OCCCCN3CCC(c4noc5cc(F)ccc45)CC3)cc2o1`: the Ki worked out at 38.1 nM at Histamine H1 receptor; 9.2 nM in test [1]; 14.8 nM on D(2) dopamine receptor; 46.9 nM in test [2]; 72.7 nM at D(3) dopamine receptor; 12.7 nM in test [3].
Regarding `Cc1cc(=O)oc2c(C)c(OCCCCN3CCC(c4noc5cc(F)ccc45)CC3)ccc12`, the Ki at Histamine H1 receptor amounted to 21.3 nM; in test [1], 0.9 nM; on D(2) dopamine receptor it was 5.3 nM; in test [2], 598.6 nM; on D(3) dopamine receptor, 13.6 nM; in test [3], 12.9 nM.
Consider `Cc1c(C)c2ccc(OCCCCN3CCC(c4noc5cc(F)ccc45)CC3)cc2oc1=O`, for which the Ki was 550 nM on Histamine H1 receptor; 0.3 nM in test [1]; 4 nM at D(2) dopamine receptor; 124.3 nM in test [2]; 30.6 nM on D(3) dopamine receptor; 16.7 nM in test [3].
As for `Cc1cc(=O)oc2c(Cl)c(OCCCCN3CCC(c4noc5cc(F)ccc45)CC3)ccc12`, the Ki on Histamine H1 receptor came out at 1130 nM; in test [1], 0.3 nM; on D(2) dopamine receptor, 2.6 nM; in test [2], 15.6 nM; on D(3) dopamine receptor, 4.3 nM; in test [3], 3.3 nM.

Usually Ki stands for a dissociation constant, usually derived from enzyme kinetics or from competition with a known ligand.
